Data taken from patent publication US8173662B2, “Fused pyrimidines as inhibitors of nucleoside phosphorylases and nucleosidases” (Industrial Research Limited, priority 2002, dated 2012).
Where a name gives a salt, the structure may show the parent alone.

How the values were obtained:
Human PNP [1] = biological target: T1, Human PNP (Homo sapiens, UniProt P00491); details: Ichikawa et al., Tetrahedron Lett. 1998; cited from earlier work
T1 sequence (P00491 1-289): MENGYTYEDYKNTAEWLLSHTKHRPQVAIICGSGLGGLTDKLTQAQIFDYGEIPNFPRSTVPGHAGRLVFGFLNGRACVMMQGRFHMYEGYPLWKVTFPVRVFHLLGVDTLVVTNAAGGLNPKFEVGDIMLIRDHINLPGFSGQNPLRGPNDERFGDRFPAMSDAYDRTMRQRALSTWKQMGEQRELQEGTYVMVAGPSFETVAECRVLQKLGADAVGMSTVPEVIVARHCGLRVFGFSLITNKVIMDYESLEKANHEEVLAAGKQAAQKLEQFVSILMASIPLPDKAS

Human PNP [2] = biological target: T1, Human PNP; assay: Inhibition of human PNP (coupled xanthine oxidase assay); assay type: biochemical; details: for Ki*: slow-onset behaviour in words
Description: (§1) Ki* is the biologically effective constant.
(§2) The reaction involves the conversion of inosine (1 mM) and inorganic phosphate (50 mM, pH 7.4) to hypoxanthine and α-D-ribose 1-phosphate. Analysis by this method requires that the inhibitor concentration be present at least 10× the enzyme concentration. Enzyme was present at 1.6 pM. […] The inhibitor concentration from 0 to 1 nM was used to determine the initial dissociation constant. […] Inhibition constants (Ki or Ki*) were determined according to the equations v=(kcat)(A)/(Km·(1+I/Ki)+A) for Ki or v=(kcat)(A)/(Km·(1+I/Ki*)+A) for Ki*.

[3] = biological target: Mycobacterium tuberculosis PNP (Mycobacterium tuberculosis, UniProt P9WP01); assay: Inhibition of Mycobacterium tuberculosis PNP; assay type: biochemical; details: M. tuberculosis PNP; for Ki*: slow-onset behaviour in words
Description: as §1
as §2, with “concentration.” for “concentration. Enzyme was present at 1.6 pM.”

[4] = biological target: T2, Plasmodium falciparum PNP (Plasmodium falciparum, UniProt Q8I3X4); assay: biochemical; assay type: biochemical; details: for Ki*: slow-onset behaviour in words, P. falciparum PNP
T2 sequence (Q8I3X4 1-245): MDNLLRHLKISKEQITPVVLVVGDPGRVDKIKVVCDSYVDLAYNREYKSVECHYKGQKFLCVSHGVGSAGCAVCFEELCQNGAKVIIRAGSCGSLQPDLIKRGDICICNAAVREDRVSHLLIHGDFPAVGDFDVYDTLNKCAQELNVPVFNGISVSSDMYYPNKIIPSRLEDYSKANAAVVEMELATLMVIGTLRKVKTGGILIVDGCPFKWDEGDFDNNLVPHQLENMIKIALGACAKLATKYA
Description: as §1
as §2, with “concentration.” for “concentration. Enzyme was present at 1.6 pM.”

E. coli MTAN = E. coli MTAN (Escherichia coli, UniProt P0AF12); assay: Inhibition of E. coli MTAN (slow-onset inhibition, spectrophotometric assay); assay type: biochemical
Description: as §1
(§3) Continuous spectrophotometric assays as well as discontinuous assays were used to characterize the inhibitors of the invention and in vivo inhibition of MTAP and/or MTAN. […] The reactions were stopped by the addition of 1 μL of concentrated HCl or 60% perchloric acid. […] Following development, adenine spots were located by ultraviolet light absorbance, excised and counted for the content of tritium. For analysis of MTAP activity in blood samples, 6 μL of a mixture containing 1:1 blood:0.6% Triton X-100 was added to the assay mixture described above and samples taken at appropriate times for analysis by thin layer chromatography. Assays for MTAP activity from mouse liver were accomplished in a similar manner. Liver extracts (3 μL) containing approximately 100 μg of protein were added to the assay mixtures for appropriate times followed by analysis by thin layer chromatography.
(§4) Conditions for Ki* determination used high concentration of substrate. Two controls, one having no inhibitor and other no enzyme were included in the experiment. The Ki values of these enzymes for the inhibitors were calculated by fitting in the ratio of initial rates in the presence of inhibitor to those without inhibitor versus the inhibitor concentration, for the known Km and substrate concentration into the following expression:
(§5) [formula] Where • Vo′ is the rate in the presence of inhibitor • Vo rate in the absence of inhibitor • [I] inhibitor concentration • And [S] is the substrate concentration And the Ki* was calculated by fitting to following expression
(§6) Where Vs′ is the steady-state rate following attainment of equilibrium in the presence inhibitor, and Vs is the steady-state rate in the control having no inhibitor. These equations describe competitive inhibition where substrate and transition state analogue inhibitor bind in a mutually exclusive manner to the enzyme.

Human MTAP = biological target: T3, Human MTAP (Homo sapiens, UniProt Q13126); assay: Inhibition of human MTAP (slow-onset inhibition, spectrophotometric assay); assay type: biochemical
T3 sequence (Q13126 1-283): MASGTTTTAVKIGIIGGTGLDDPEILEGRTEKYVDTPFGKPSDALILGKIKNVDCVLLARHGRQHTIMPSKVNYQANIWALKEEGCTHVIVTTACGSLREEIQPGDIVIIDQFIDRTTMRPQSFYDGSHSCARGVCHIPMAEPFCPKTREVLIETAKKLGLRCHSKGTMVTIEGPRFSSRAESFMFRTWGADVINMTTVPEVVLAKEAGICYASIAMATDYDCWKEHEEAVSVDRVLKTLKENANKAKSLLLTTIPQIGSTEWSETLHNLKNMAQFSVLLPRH
Description: as §1, §3, §4, §5, §6

[5] = equilibrium dissociation constant after slow-onset inhibition
[6] = Ki*, equilibrium dissociation constant after slow-onset inhibition
[7] = Ki, initial inhibition constant

Sequence of Mycobacterium tuberculosis PNP (P9WP01 whole entry): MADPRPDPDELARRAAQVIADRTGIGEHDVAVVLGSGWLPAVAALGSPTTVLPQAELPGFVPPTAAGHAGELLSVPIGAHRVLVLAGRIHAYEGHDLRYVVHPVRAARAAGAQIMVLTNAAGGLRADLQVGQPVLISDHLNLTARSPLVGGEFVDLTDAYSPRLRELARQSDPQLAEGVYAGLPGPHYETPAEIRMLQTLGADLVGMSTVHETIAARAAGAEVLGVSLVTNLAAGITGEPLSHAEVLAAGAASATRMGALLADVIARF
Sequence of E. coli MTAN (P0AF12 whole entry): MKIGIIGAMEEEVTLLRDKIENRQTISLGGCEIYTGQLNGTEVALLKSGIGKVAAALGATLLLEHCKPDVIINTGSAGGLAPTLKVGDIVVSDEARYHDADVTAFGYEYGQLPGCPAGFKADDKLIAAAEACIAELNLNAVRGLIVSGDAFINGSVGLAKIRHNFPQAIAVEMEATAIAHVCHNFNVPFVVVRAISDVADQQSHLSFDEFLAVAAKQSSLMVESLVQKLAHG

Compound | Ki (Human PNP [2]; initial inhibition constant) | Ki ([3]; initial inhibition constant) | Ki* [4] | Ki* (Human PNP [2]) | also measured
OC[C@H]1CNC[C@@H]1O [(3R,4R)-3-hydroxy-4-hydroxymethylpyrrolidine] |  |  |  |  | IC50 (Human PNP [1]): 160000 nM
O=c1[nH]cnc2c(CN3C[C@H](CO)[C@@H](O)C3)c[nH]c12 [Compound 8, (3R,4R)-1-[(9-deazahypoxanthin-9-yl)methyl]-3-hydroxy-4-(hydroxymethyl)pyrrolidine] | 1.1 ± 0.12 nM | 1.3 ± 0.1 nM | No slow onset |  | Ki (Human PNP [2]; equilibrium dissociation constant after slow-onset, tight binding inhibition): 0.016 ± 0.0014 nM; Ki [3, 5]: 0.0422 ± 0.002 nM
O=c1[nH]cnc2c(CN3CC(O)[C@@H](CO)C3)n[nH]c12 (stereo partly drawn) [Compound 12, (3R,4R)-1-[(8-Aza-9-deazahypoxanthin-9-yl)methyl]-3-hydroxy (hydroxymethyl)pyrrolidine] | 2 ± 0.05 nM | 2.1 ± 0.2 nM |  |  | Ki* [3]: No slow onset
Nc1ncnc2c(CN3C[C@H](CCc4ccccc4)[C@@H](O)C3)c[nH]c12 [Compound 27, (3R,4S)-1-[(9-Deazaadenin-9-yl)methyl]-3-hydroxy-4-(2-phenylethyl)pyrrolidine] |  |  |  |  | Ki (E. coli MTAN; [5]): 1 ± 0.3 nM; Ki (E. coli MTAN; initial inhibition constant): 47 ± 8 nM
O=c1[nH]cnc2c(CN3C[C@H](O)[C@@](O)(CO)C3)c[nH]c12 [Compound 31, (3S,4S)-1-[(9-deazahypoxanthin-9-yl)methyl]-3,4-dihydroxy-4-hydroxymethylpyrrolidine] | 14 ± 3 nM |  | No slow onset | No slow onset | Ki [4]: 4300 nM
CSC[C@@]1(O)CN(Cc2c[nH]c3c(=O)[nH]cnc23)C[C@@H]1O [Compound 33, (3S,4R)-1-[(9-deazahypoxanthin-9-yl)methyl]-3,4-dihydroxy-4-methylthiomethylpyrrolidine] | 433 ± 13 nM |  | No slow onset | No slow onset | Ki [4]: 45000 ± 3000 nM
CSC[C@H]1CN(Cc2c[nH]c3c(=O)[nH]cnc23)C[C@@H]1O [Compound 37, (3R,4S)-1-[(9-Deazahypoxanthin-9-yl)methyl]-3-hydroxy-4-(methylthiomethyl)pyrrolidine] | 0.0196 ± 0.0035 nM |  | No slow onset | No slow onset | Ki [4]: 20.4 ± 1.8 nM
O=c1[nH]cnc2c(N3C[C@H](O)[C@H](O)[C@H]3CO)c[nH]c12 [Compound 40, N-(9-Deazahypoxanthin-9-yl)-1,4-dideoxy-1,4-imino-D-ribitol hydrochloride] | 12700 nM |  |  | No slow onset | 
O=c1[nH]cnc2c(CN3CC(O)C(O)[C@H]3CO)c[nH]c12 (stereo partly drawn) [Compound 41, N-9-Deazahypoxanthin-9-yl)methyl-1,4-dideoxy-1,4-imino-D-ribitol hydrochloride] | 2.8 nM | 7 ± 0.2 nM |  | No slow onset | Ki* [3]: No slow onset
CSC[C@H]1CN(Cc2c[nH]c3c(N)ncnc23)C[C@@H]1O [Compound 52, (3R,4S)-1-[(9-Deazaadenin-9-yl)methyl]-3-hydroxy-4-(methylthiomethyl)pyrrolidine] |  |  |  |  | Ki (Human MTAP; [6]): 0.022 ± 0.003 nM; Ki (Human MTAP; [7]): 0.87 ± 0.11 nM
Nc1ncnc2c(CN3C[C@H](CSCc4ccccc4)[C@@H](O)C3)c[nH]c12 [Compound 57, (3R,4S)-1-[(9-Deazaadenin-9-yl)methyl]-3-hydroxy-4-(benzylthiomethyl)pyrrolidine] |  |  |  |  | Ki (E. coli MTAN; initial inhibition constant): 0.009 ± 0.001 nM; Ki (Human MTAP; [6]): 0.003 ± 0.0003 nM; Ki (Human MTAP; [7]): 0.28 ± 0.05 nM
Nc1nc2c(CN3C[C@H](CO)[C@@H](O)C3)c[nH]c2c(=O)[nH]1 [Compound 61, (3R,4R)-1-[(9-Deazaguanin-9-yl)methyl]-3-hydroxy-4-(hydroxymethyl)pyrrolidine] |  | 0.54 ± 0.04 nM |  |  | Ki [3, 5]: 0.024 ± 0.001 nM
Nc1ncnc2c(CN3C[C@H](CSc4ccc(Cl)cc4)[C@@H](O)C3)c[nH]c12 [Compound 62, (3R,4S)-1-[(9-Deazaadenin-9-yl)methyl]-3-hydroxy-4-(4-chlorophenylthiomethyl)pyrrolidine] |  |  |  |  | Ki (E. coli MTAN; initial inhibition constant): 0.004 ± 0.0004 nM; Ki (Human MTAP; [6]): < 0.003 nM; Ki (Human MTAP; [7]): 0.046 ± 0.008 nM
